From patent US6737383B1, “Herbicidal oxadiazolidines” (priority 1999, dated 2004)

Key:
bedstraw = assay: Test B pre/postemergence bedstraw; type: in vivo, Galium aparine; conditions: Preemergence; for Bedstraw plant response rating: scale 0 to 10, 0 is no effect, 10 is complete control
Procedure, shortened: (§1)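 Herbicidal effect was estimated by eye on a ten-point control scale after plants spent twelve to sixteen days in a greenhouse following soil or foliar treatment. Foliar sprays targeted plants at one to four leaves; all doses were formulated in a non-phytotoxic solvent with surfactant.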

blackgrass = assay: Test B pre/postemergence blackgrass; type: in vivo, Alopecurus myosuroides
Procedure, shortened: as §1

surinam grass = assay: Test B pre/postemergence surinam grass; type: in vivo, Brachiaria decumbens
Procedure, shortened: as §1

cocklebur = assay: Test B pre/postemergence cocklebur; type: in vivo, Xanthium strumarium
Procedure, shortened: as §1

corn = assay: Test B pre/postemergence corn; type: in vivo, Zea mays
Procedure, shortened: as §1

crabgrass = assay: Test B pre/postemergence crabgrass; type: in vivo, Digitaria sanguinalis
Procedure, shortened: as §1

giant foxtail = assay: Test B pre/postemergence giant foxtail; type: in vivo, Setaria faberii
Procedure, shortened: as §1

morningglory = assay: Test B pre/postemergence morningglory; type: in vivo, Ipomoea hederacea
Procedure, shortened: as §1

pigweed = assay: Test B pre/postemergence pigweed; type: in vivo, Amaranthus retroflexus
Procedure, shortened: as §1

rape = assay: Test B pre/postemergence rape; type: in vivo, Brassica napus
Procedure, shortened: as §1

soybean = assay: Test B pre/postemergence soybean; type: in vivo, Glycine max
Procedure, shortened: as §1

sugar beet = assay: Test B pre/postemergence sugar beet; type: in vivo, Beta vulgaris
Procedure, shortened: as §1

velvetleaf = assay: Test B pre/postemergence velvetleaf; type: in vivo, Abutilon theophrasti
Procedure, shortened: as §1

wheat = assay: Test B pre/postemergence wheat; type: in vivo, Triticum aestivum
Procedure, shortened: as §1

wild oat = assay: Test B pre/postemergence wild oat; type: in vivo, Avena fatua
Procedure, shortened: as §1

purple nutsedge = assay: Test B pre/postemergence purple nutsedge; type: in vivo, Cyperus rotundus
Procedure, shortened: as §1

rice = assay: Test B flood test rice; type: in vivo, Oryza sativa
Procedure, shortened: (§2)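 Read-out is a visual response score from 0 (no effect) to 10 (complete control), assigned by comparison with untreated controls. Treatment was applied at the 2-leaf stage, and plants stayed in the greenhouse for twelve to sixteen days before scoring.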

smallflower flatsedge = assay: Test B flood test smallflower flatsedge; type: in vivo, Cyperus difformis
Procedure, shortened: as §2

duck salad = assay: Test B flood test duck salad; type: in vivo, Heteranthera limosa
Procedure, shortened: as §2

bamyardgrass = assay: Test B flood test barnyardgrass; type: in vivo, Echinochloa crus-galli
Procedure, shortened: as §2

[1] = Postemergence, Rate 125 g/ha, scale 0 to 10, 0 is no effect, 10 is complete control
[2] = Postemergence, Rate 250 g/ha, scale 0 to 10
[3] = Postemergence, Rate 500 g/ha, scale 0 to 10, 0 is no effect, 10 is complete control
[4] = Preemergence, Rate 62 g/ha, scale of 0 to 10 where 0 is no effect and 10 is complete control
[5] = Preemergence, Rate 125 g/ha, scale 0 to 10, 0 is no effect, 10 is complete control
[6] = Preemergence, Rate 250 g/ha, scale 0 to 10, 0 is no effect, 10 is complete control
[7] = Preemergence, Rate 500 g/ha, scale of 0 to 10 where 0 is no effect and 10 is complete control
[8] = Rate 62 g/ha, Postemergence, scale 0 to 10 (0 no effect, 10 complete control)
[9] = Rate 62 g/ha, flood test species, Pre-emergence, visual evaluation after twelve to sixteen days
[10] = Rate 125 g/ha, under heading Pre-emergence, flood test species, visual evaluation after twelve to sixteen days
[11] = Rate 250 g/ha, Pre-emergence (flood test species), scale 0 to 10, 0 is no effect, 10 is complete control
[12] = Rate 500 g/ha, Pre-emergence section of Table B, 0 to 10 scale (0 no effect, 10 complete control)

## CC(C)N(C(=O)n1oc(=O)n(CCCNC(=O)CCl)c1=O)c1ccccc1 [Compound 493]
bedstraw; Rate 62 g/ha, scale of 0 to 10 where 0 is no effect and 10 is complete control
  Plant response rating, Bedstraw: 0
bedstraw; Rate 125 g/ha
  Bedstraw plant response rating: 0
bedstraw; Rate 250 g/ha
  Bedstraw plant response rating: 0
bedstraw; Rate 500 g/ha
  Bedstraw plant response rating: 0
blackgrass; [1]
  Blackgrass plant response rating: 0
blackgrass; [2]
  Blackgrass plant response rating: 0
blackgrass; [3]
  Plant response rating, Blackgrass: 0
blackgrass; [4]
  Plant response rating, Blackgrass: 0
blackgrass; [5]
  Blackgrass plant response rating: 0
blackgrass; [6]
  Blackgrass plant response rating: 0
blackgrass; [7]
  Blackgrass plant response rating: 0
blackgrass; [8]
  Blackgrass plant response rating: 0
Surinam grass; [1]
  B. signalgrass plant response rating: 0
Surinam grass; Postemergence, Rate 250 g/ha, scale 0 to 10, 0 no effect, 10 complete control
  B. signalgrass plant response rating: 0
Surinam grass; [3]
  Plant response rating, B. signalgrass: 0
Surinam grass; [4]
  Plant response rating, B. signalgrass: 0
Surinam grass; [5]
  B. signalgrass plant response rating: 0
Surinam grass; [6]
  B. signalgrass plant response rating: 0
Surinam grass; Preemergence, Rate 500 g/ha, scale 0 to 10, 0 is no effect, 10 is complete control
  B. signalgrass plant response rating: 0
Surinam grass; [8]
  B. signalgrass plant response rating: 0
cocklebur; [1]
  Cocklebur plant response rating: 0
cocklebur; [2]
  Cocklebur plant response rating: 0
cocklebur; [3]
  Plant response rating, Cocklebur: 0
cocklebur; [4]
  Plant response rating, Cocklebur: 0
cocklebur; [5]
  Cocklebur plant response rating: 0
cocklebur; [6]
  Cocklebur plant response rating: 0
cocklebur; [7]
  Cocklebur plant response rating: 0
cocklebur; [8]
  Cocklebur plant response rating: 0
corn; [1]
  Corn plant response rating: 0
corn; [2]
  Corn plant response rating: 0
corn; [3]
  Plant response rating, Corn: 0
corn; [4]
  Plant response rating, Corn: 0
corn; [5]
  Corn plant response rating: 0
corn; [7]
  Corn plant response rating: 0
corn; [8]
  Corn plant response rating: 0
crabgrass; [1]
  Crabgrass plant response rating: 0
crabgrass; [2]
  Crabgrass plant response rating: 0
crabgrass; [3]
  Plant response rating, Crabgrass: 4
crabgrass; [4]
  Plant response rating, Crabgrass: 0
crabgrass; [5]
  Crabgrass plant response rating: 0
crabgrass; [7]
  Crabgrass plant response rating: 2
crabgrass; [8]
  Crabgrass plant response rating: 0
Giant foxtail; [1]
  Giant foxtail plant response rating: 0
Giant foxtail; [3]
  Plant response rating, Giant foxtail: 0
Giant foxtail; [4]
  Plant response rating, Giant foxtail: 3
Giant foxtail; [5]
  Giant foxtail plant response rating: 3
Giant foxtail; [7]
  Giant foxtail plant response rating: 10
Giant foxtail; [8]
  Giant foxtail plant response rating: 0
morningglory; [1]
  Morningglory plant response rating: 0
morningglory; [3]
  Plant response rating, Morningglory: 0
morningglory; [4]
  Plant response rating, Morningglory: 0
morningglory; [5]
  Morningglory plant response rating: 0
morningglory; [7]
  Morningglory plant response rating: 0
morningglory; [8]
  Morningglory plant response rating: 0
pigweed; [1]
  Redroot pigweed plant response rating: 0
pigweed; [3]
  Plant response rating, Redroot pigweed: 0
pigweed; [4]
  Plant response rating, Redroot pigweed: 0
pigweed; [5]
  Redroot pigweed plant response rating: 0
pigweed; [7]
  Redroot pigweed plant response rating: 0
pigweed; [8]
  Redroot pigweed plant response rating: 0
rape; [1]
  Rape plant response rating: 0
rape; [3]
  Plant response rating, Rape: 0
rape; [4]
  Plant response rating, Rape: 0
rape; [5]
  Rape plant response rating: 0
rape; [7]
  Rape plant response rating: 0
rape; [8]
  Rape plant response rating: 0
soybean; [1]
  Soybean plant response rating: 0
soybean; [3]
  Plant response rating, Soybean: 2
soybean; [4]
  Plant response rating, Soybean: 0
soybean; [5]
  Soybean plant response rating: 0
soybean; [7]
  Soybean plant response rating: 0
Sugar beet; [1]
  Sugarbeets plant response rating: 0
Sugar beet; [3]
  Plant response rating, Sugarbeets: 0
Sugar beet; [4]
  Plant response rating, Sugarbeets: 0
Sugar beet; [5]
  Sugarbeets plant response rating: 0
Sugar beet; [7]
  Sugarbeets plant response rating: 0
Sugar beet; [8]
  Sugarbeets plant response rating: 0
velvetleaf; [1]
  Velvetleaf plant response rating: 0
velvetleaf; [3]
  Plant response rating, Velvetleaf: 0
velvetleaf; [4]
  Plant response rating, Velvetleaf: 0
velvetleaf; [5]
  Velvetleaf plant response rating: 0
velvetleaf; [7]
  Velvetleaf plant response rating: 0
velvetleaf; [8]
  Velvetleaf plant response rating: 0
wheat; [1]
  Wheat plant response rating: 0
wheat; [3]
  Plant response rating, Wheat: 0
wheat; [4]
  Plant response rating, Wheat: 0
wheat; [5]
  Wheat plant response rating: 0
wheat; [7]
  Wheat plant response rating: 0
wheat; [8]
  Wheat plant response rating: 0
Wild oat; [1]
  Wild oats plant response rating: 0
Wild oat; [3]
  Plant response rating, Wild oats: 0
Wild oat; [4]
  Plant response rating, Wild oats: 0
Wild oat; [5]
  Wild oats plant response rating: 0
Wild oat; [7]
  Wild oats plant response rating: 0
Wild oat; [8]
  Wild oats plant response rating: 0
Purple nutsedge; [1]
  Nutsedge plant response rating: 0
Purple nutsedge; [3]
  Plant response rating, Nutsedge: 0
Purple nutsedge; [5]
  Nutsedge plant response rating: 0
Purple nutsedge; [7]
  Nutsedge plant response rating: 0
Purple nutsedge; [8]
  Nutsedge plant response rating: 0
rice; [9]
  Plant response rating, Rice (0 to 10 scale, 0 is no effect, 10 is complete control): 0
rice; [10]
  Rice plant response rating (0 to 10 scale, 0 is no effect, 10 is complete control): 0
rice; [11]
  Rice plant response rating: 0
rice; [12]
  Rice plant response rating: 0
Smallflower flatsedge; [9]
  Plant response rating, S. Flatsedge (0 to 10 scale, 0 is no effect, 10 is complete control): 0
Smallflower flatsedge; [10]
  S. Flatsedge plant response rating (0 to 10 scale, 0 is no effect, 10 is complete control): 0
Smallflower flatsedge; [11]
  S. Flatsedge plant response rating: 0
Smallflower flatsedge; [12]
  S. Flatsedge plant response rating: 0
Duck salad; [9]
  Plant response rating, Ducksalad (0 to 10 scale, 0 is no effect, 10 is complete control): 0
Duck salad; [10]
  Ducksalad plant response rating (0 to 10 scale, 0 is no effect, 10 is complete control): 0
Duck salad; [11]
  Ducksalad plant response rating: 0
Duck salad; [12]
  Ducksalad plant response rating: 0
bamyardgrass; [9]
  Plant response rating, Barnyardgrass (0 to 10 scale, 0 is no effect, 10 is complete control): 0
bamyardgrass; [10]
  Barnyardgrass plant response rating (0 to 10 scale, 0 is no effect, 10 is complete control): 0
bamyardgrass; [11]
  Barnyardgrass plant response rating: 0
bamyardgrass; [12]
  Barnyardgrass plant response rating: 0
